Measured values from US10047075B2, “Pyridines and pyrimidines and use thereof” (Purdue Pharma L.P., priority 2014, dated 2018).

Target: human Nav1.7 (Homo sapiens, UniProt Q15858)
Experiment: FLIPR or FLIPR TETRA sodium dye assay with KCl and test article pre-incubation (CoroNa Green, veratridine + scorpion venom)
Format: cell-based
Settings: recombinant human Nav1.7 in HEK293 cells

Sequence of human Nav1.7 (Q15858 1-1977 isoform Q15858-3): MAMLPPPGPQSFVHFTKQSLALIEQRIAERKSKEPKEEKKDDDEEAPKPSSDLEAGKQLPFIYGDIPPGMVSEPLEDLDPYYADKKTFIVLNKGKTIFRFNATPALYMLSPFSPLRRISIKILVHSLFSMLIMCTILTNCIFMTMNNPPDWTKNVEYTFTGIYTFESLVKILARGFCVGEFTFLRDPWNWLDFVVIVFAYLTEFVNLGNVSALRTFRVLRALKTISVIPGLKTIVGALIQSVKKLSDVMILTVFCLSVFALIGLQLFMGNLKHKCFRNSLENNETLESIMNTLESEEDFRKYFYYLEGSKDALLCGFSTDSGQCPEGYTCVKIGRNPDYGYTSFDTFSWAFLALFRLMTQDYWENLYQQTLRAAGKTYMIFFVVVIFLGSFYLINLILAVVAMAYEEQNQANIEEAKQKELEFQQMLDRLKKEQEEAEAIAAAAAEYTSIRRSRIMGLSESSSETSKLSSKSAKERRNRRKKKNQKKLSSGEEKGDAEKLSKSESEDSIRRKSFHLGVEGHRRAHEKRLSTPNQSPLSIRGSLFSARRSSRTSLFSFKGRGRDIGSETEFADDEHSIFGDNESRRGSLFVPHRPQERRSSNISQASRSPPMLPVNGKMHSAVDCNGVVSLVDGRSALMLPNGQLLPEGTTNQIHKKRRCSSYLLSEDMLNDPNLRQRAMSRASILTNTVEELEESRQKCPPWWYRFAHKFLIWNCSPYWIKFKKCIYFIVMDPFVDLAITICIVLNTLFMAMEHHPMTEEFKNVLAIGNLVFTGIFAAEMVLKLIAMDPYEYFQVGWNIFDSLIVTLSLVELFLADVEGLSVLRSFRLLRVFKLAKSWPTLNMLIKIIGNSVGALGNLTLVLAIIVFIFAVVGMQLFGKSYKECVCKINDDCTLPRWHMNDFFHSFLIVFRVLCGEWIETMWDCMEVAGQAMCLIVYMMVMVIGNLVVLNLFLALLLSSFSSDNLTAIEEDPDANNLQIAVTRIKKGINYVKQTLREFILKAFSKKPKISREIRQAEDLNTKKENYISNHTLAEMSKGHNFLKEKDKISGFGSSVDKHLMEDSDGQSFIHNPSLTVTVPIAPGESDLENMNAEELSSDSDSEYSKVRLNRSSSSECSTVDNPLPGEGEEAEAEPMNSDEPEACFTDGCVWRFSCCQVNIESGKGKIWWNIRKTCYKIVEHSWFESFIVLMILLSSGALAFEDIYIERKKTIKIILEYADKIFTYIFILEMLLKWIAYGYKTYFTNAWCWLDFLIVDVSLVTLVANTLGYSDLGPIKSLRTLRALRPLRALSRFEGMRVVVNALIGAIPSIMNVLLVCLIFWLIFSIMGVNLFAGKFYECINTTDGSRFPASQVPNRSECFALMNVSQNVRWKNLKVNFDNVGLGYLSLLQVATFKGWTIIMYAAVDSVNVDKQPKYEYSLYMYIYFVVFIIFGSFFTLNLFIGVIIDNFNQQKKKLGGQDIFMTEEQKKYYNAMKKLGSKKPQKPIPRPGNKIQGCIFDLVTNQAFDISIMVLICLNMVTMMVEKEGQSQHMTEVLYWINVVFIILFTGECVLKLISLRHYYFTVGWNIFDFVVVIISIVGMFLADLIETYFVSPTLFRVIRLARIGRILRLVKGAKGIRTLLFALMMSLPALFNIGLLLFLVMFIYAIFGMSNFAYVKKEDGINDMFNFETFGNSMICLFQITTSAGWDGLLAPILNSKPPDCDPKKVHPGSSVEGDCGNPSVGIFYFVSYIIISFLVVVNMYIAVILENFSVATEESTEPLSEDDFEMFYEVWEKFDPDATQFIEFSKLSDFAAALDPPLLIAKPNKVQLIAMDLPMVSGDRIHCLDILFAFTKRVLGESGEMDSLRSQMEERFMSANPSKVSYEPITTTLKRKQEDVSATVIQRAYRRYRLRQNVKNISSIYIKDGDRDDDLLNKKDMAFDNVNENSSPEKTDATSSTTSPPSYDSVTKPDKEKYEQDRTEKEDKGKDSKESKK

Structure (SMILES)	IC50 [µM]
NC(=O)c1cccc(-c2ccc3c(c2)CCCCN3c2ccc(C(F)(F)F)cc2)n1 [Compound 58, 6-(1-(4-(trifluoromethyl)phenyl)-2,3,4,5-tetrahydro-1H-benzo[b]azepin-7-yl)picolinamide]	0.357 ± 0.015
NC(=O)c1cccc(-c2ccc3c(c2)COCCN3c2ccc(C(F)(F)F)cc2)n1 [Compound 61, 6-(1-(4-(trifluoromethyl)phenyl)-1,2,3,5-tetrahydrobenzo[e][1,4]oxazepin-7-yl)picolinamide]	0.404 ± 0.036
C[C@H](Nc1cc(C(N)=O)nc(-c2ccc3c(c2)CCCCN3c2ccc(C(F)(F)F)cc2)n1)C(N)=O [Compound 64, (S)-6-((1-amino-1-oxopropan-2-yl)amino)-2-(1-(4-(trifluoro-methyl)phenyl)-2,3,4,5-tetrahydro-1H-benzo[b]azepin-7-yl)pyrimidine-4-carboxamide]	1.04 ± 0.077
NC(=O)c1cccc(-c2ccc3c(c2)OCCCN3c2ccc(C(F)(F)F)cc2)n1 [Compound 65, 6-(5-(4-(trifluoromethyl)-phenyl)-2,3,4,5-tetrahydrobenzo[b][1,4]oxazepin-8-yl)picolinamide]	0.338 ± 0.034
NC(=O)c1cccc(-c2ccc3c(c2)CCCN3c2ccc(C(F)(F)F)cc2)n1 [Compound 66, 6-(1-(4-(trifluoromethyl)-phenyl)-1,2,3,4-tetrahydroquinolin-6-yl)picolinamide]	0.913 ± 0.024
NC(=O)c1cccc(-c2ccc3c(c2)CCCN3c2cccc(C(F)(F)F)c2)n1 [Compound 67, 6-(1-(3-(trifluoromethyl)-phenyl)-1,2,3,4-tetrahydroquinolin-6-yl)picolinamide]	> 20
NC(=O)c1cccc(-c2ccc3c(c2)CCN3c2ccc(C(F)(F)F)cc2)n1 [Compound 68, 6-(1-(4-(trifluoromethyl)-phenyl)indolin-5-yl)-picolinamide]	> 20
NC(=O)c1cccc(-c2ccc3c(c2)OCC=C3c2ccc(C(F)(F)F)cc2)n1 [Compound 69, 6-(4-(4-(trifluoromethyl)-phenyl)-2H-chromen-7-yl)picolinamide]	0.524 ± 0.077
C[C@H](Nc1cc(C(N)=O)nc(-c2ccc3c(c2)OC[C@H](O)[C@H]3c2ccc(C(F)(F)F)cc2)n1)C(N)=O [Compound 71, 6-(((S)-1-amino-1-oxopropan-2-yl)amino)-2-((3R,4S)-3-hydroxy-4-(4-(trifluoromethyl)phenyl)chroman-7-yl)pyrimidine-4-carboxamide]	> 20
NC(=O)c1cc(CN[C@H]2CCNC2=O)nc(-c2ccc3c(c2)OCCCN3c2ccc(C(F)(F)F)cc2)n1 [Compound 72, (S)-6-(((2-oxopyrrolidin-3-yl)amino)methyl)-2-(5-(4-(trifluoromethyl)phenyl)-2,3,4,5-tetrahydrobenzo[b][1,4]oxazepin-8-yl)pyrimidine-4-carboxamide]	0.11 ± 0.022
OC[C@@H](O)c1cccc(-c2ccc3c(c2)CCCCN3C2CCCCC2)n1 [Compound 73, (S)-1-(6-(1-cyclohexyl-2,3,4,5-tetrahydro-1H-benzo[b]azepin-7-yl)pyridin-2-yl)ethane-1,2-diol]	0.331 ± 0.031
C[C@H](Nc1cc(C(N)=O)nc(-c2ccc3c(c2)CCCCN3C2CCCCC2)n1)C(N)=O [Compound 74, (S)-6-((1-amino-1-oxopropan-2-yl)amino)-2-(1-cyclohexyl-2,3,4,5-tetrahydro-1H-benzo[b]azepin-7-yl)pyrimidine-4-carboxamide]	4.88 ± 0.47
OC[C@@H](O)c1cccc(-c2ccc3c(c2)CCCCN3C2CCOCC2)n1 [Compound 75, (S)-1-(6-(1-(tetrahydro-2H-pyran-4-yl)-2,3,4,5-tetrahydro-1H-benzo[b]azepin-7-yl)pyridin-2-yl)ethane-1,2-diol]	3.35 ± 0.244
OC[C@@H](O)c1cccc(-c2ccc3c(c2)CCCCN3C2CCC(F)(F)CC2)n1 [Compound 76, (S)-1-(6-(1-(4,4-difluorocyclohexyl)-2,3,4,5-tetrahydro-1H-benzo[b]azepin-7-yl)pyridin-2-yl)ethane-1,2-diol]	0.526 ± 0.034
O=C1Cc2cc(-c3cccc([C@H](O)CO)n3)ccc2N1Cc1ccc(C(F)(F)F)cc1 [Compound 77, (S)-5-(6-(1,2-dihydroxyethyl)pyridin-2-yl)-1-(4-(trifluoromethyl)-benzyl)indolin-2-one]	7.8 ± 0.691
O=S(=O)(c1ccc(C(F)(F)F)cc1)N1CCCc2cc(-c3cccc([C@H](O)CO)n3)ccc21 [Compound 78, (S)-1-(6-(1-((4-(trifluoromethyl)-phenyl)sulfonyl)-1,2,3,4-tetrahydroquinolin-6-yl)pyridin-2-yl)ethane-1,2-diol]	0.857 ± 0.103
C[C@H](Nc1cc(C(N)=O)nc(-c2ccc3c(c2)CCCN3c2ccc(C(F)(F)F)cc2)n1)C(N)=O [Compound 80, (S)-6-((1-amino-1-oxopropan-2-yl)amino)-2-(1-(4-(trifluoro-methyl)phenyl)-1,2,3,4-tetrahydroquinolin-6-yl)pyrimidine-4-carboxamide]	0.653 ± 0.118
OC[C@@H](O)c1cccc(-c2ccc3c(c2)CCCN3Cc2ccc(C(F)(F)F)cc2)n1 [Compound 81, (S)-1-(6-(1-(4-(trifluoromethyl)benzyl)-1,2,3,4-tetrahydroquinolin-6-yl)pyridin-2-yl)ethane-1,2-diol]	0.091 ± 0.025
NC(=O)c1cc(O[C@H]2CCNC2=O)nc(-c2ccc3c(c2)OCCCN3c2ccc(C(F)(F)F)cc2)n1 [Compound 82, (S)-6-((2-oxopyrrolidin-3-yl)oxy)-2-(5-(4-(trifluoromethyl)phenyl)-2,3,4,5-tetrahydrobenzo-[b][1,4]oxazepin-8-yl)pyrimidine-4-carboxamide]	0.211 ± 0.038
NC(=O)[C@H](O)[C@@H](O)c1cccc(-c2ccc3c(c2)OCCCN3c2ccc(C(F)(F)F)cc2)n1 [Compound 83, (2R,3S)-2,3-dihydroxy-3-(6-(5-(4-(trifluoromethyl)phenyl)-2,3,4,5-tetrahydrobenzo[b][1,4]-oxazepin-8-yl)pyridin-2-yl)propanamide]	0.213 ± 0.013
NC(=O)c1cccc(-c2ccc3c(c2)CNCCN3c2ccc(C(F)(F)F)cc2)n1 [Compound 84, 6-(1-(4-(trifluoromethyl)-phenyl)-2,3,4,5-tetrahydro-1H-benzo[e][1,4]diazepin-7-yl)picolinamide]	1.92 ± 0.296
C[C@H](Nc1cc(C(N)=O)nc(-c2ccc3c(c2)CNCCN3c2ccc(C(F)(F)F)cc2)n1)C(N)=O [Compound 88, (S)-6-((1-amino-1-oxopropan-2-yl)amino)-2-(1-(4-(trifluoromethyl)phenyl)-2,3,4,5-tetrahydro-1H-benzo[e][1,4]diazepin-7-yl)pyrimidine-4-carboxamide]	> 20
C[C@H](Nc1cc(C(N)=O)nc(-c2ccc3c(c2)CN(CC2CC2)CCN3c2ccc(C(F)(F)F)cc2)n1)C(N)=O [Compound 89, (S)-6-((1-amino-1-oxopropan-2-yl)amino)-2-(4-(cyclopropylmethyl)-1-(4-(trifluoromethyl)phenyl)-2,3,4,5-tetrahydro-1H-benzo[e][1,4]diazepin-7-yl)pyrimidine-4-carboxamide]	> 20
C[C@H](Nc1cc(C(N)=O)nc(-c2ccc3c(c2)CN(C)CCN3c2ccc(C(F)(F)F)cc2)n1)C(N)=O [Compound 90, (S)-6-((1-amino-1-oxopropan-2-yl)amino)-2-(4-methyl-1-(4-(trifluoromethyl)phenyl)-2,3,4,5-tetrahydro-1H-benzo[e][1,4]diazepin-7-yl)pyrimidine-4-carboxamide]	> 20
